These results are taken from US12492197B2, “3,5-disubstituted pyrazole compounds as kinase inhibitors and uses thereof” (IMPACT THERAPEUTICS (SHANGHAI), INC, priority 2019, dated 2025).

Assay [1] deals with human breast cancer cell HCC1806. In words: Proliferation of HCC1806 cells, MTT assay. Conditions: HCC1806, 72 h, 3 days treatment, read-out: IC50 (inhibition of proliferation of HCC1806). Type of assay: cell-based. Here is the method:
Newly revived HCC1806 cells (purchased from Guangzhou Genio) were cultured and passaged for at least three generations before use. Cells were used at 90% confluency for experiments. Cells were digested with trypsinase and centrifuged at 800 rpm for 5 minutes. The cell pellets were resuspended in fresh RPMI1640 medium and cells were counted. Cells were seeded on 96-well cell culture plates at 2000 cells/well and incubated overnight at 37° C., 5% CO2. The stock solutions of the test substances (including the test compounds and the reference compound) were serially diluted to 8 concentrations with DMSO at a ratio of 1:3. Five μL of each of the serially diluted solutions were added to 120 μL of medium (diluted by 25 times) and mixed by shaking. […] The cell culture plates were returned to incubator at 37° C., 5% CO2 for 3 days. At the end of treatment the cell viability was determined by MTT colorimetric assay. Cell culture medium in each well was replaced by 100 μL/well of serum-free fresh medium containing MTT (0.5 mg/mL), and the culture was continued for additional 4 hours.
(§1) Data was analyzed by GraphPad Prism 6.0. The inhibitory effects of compounds on cell proliferation were plotted based on cell viability vs. the logarithm of compound concentration. Cell viability %=(ODcompound−ODbackground)/(ODDMSO−ODbackground)×100.
Background: Tetrazolium assays rely on reduction of a dye to a coloured formazan, in cell work by metabolically active cells.

Assay [2] deals with human colon cancer cell LoVo. In words: Proliferation of LoVo cells, MTT assay. It counts as cell-based. The settings on record: 96 h, 4 days treatment, read-out: IC50 (inhibition of proliferation of LoVo). Here is the method: Newly revived LoVo cells (purchased from Shanghai Cell Institute) were cultured and passaged for at least three generations before use. Cells were used at 90% confluence for experiment. Cells were digested with trypsinase and centrifuged at 800 rpm for 5 minutes and the supernatant was discarded. The cell pellets were resuspended in fresh RPMI1640 medium and counted. Cells were seeded on 96-well cell culture plates at 5000 cells/well and incubated overnight at 37° C., 5% CO2. The stock solutions of the test substances (including the test compounds and the reference compound) were serially diluted to 8 concentrations with DMSO at a ratio of 1:3. 5 μL of each series diluted solutions was added to 120 μL of medium (diluted by 25 times) and mixed by shaking. […] The cell culture plates were returned to incubator at 37° C. and 5% CO2 for 4 days. At the end of treatment, the cell viability was determined by MTT colorimetric assay. Cell culture medium in each well was replaced by 100 μL/well of serum-free DMEM medium containing MTT (0.5 mg/mL), and the culture was continued for additional 4 hours. Medium was then discarded and 100 μL/well of DMSO was added.
as §1

A further assay deals with T1, CHK1 kinase (Homo sapiens, UniProt O14757).
T1 construct: purchased Promega V1941
T1 sequence (O14757 1-476): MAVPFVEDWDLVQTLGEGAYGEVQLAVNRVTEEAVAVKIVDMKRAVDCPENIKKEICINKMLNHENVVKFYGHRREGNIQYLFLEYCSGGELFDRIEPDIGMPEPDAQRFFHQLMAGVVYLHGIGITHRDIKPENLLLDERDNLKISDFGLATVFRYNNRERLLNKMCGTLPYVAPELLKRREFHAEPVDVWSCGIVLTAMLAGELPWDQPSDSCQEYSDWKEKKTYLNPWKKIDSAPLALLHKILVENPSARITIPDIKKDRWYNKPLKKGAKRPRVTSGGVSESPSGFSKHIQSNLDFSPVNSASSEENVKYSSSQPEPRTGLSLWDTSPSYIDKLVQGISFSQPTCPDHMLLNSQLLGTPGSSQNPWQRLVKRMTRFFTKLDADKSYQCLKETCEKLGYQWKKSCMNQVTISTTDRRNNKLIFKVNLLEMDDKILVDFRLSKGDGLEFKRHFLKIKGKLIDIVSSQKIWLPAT
In words: CHK1 kinase inhibition, ADP-Glo kinase assay. It counts as biochemical. Conditions: ATP 10 μM, CHK1 1 ng/well; for IC50: read-out: IC50 (inhibitory effect on CHK1 kinase activity); for inhibition at 0.01 µM: compound concentration 10 nM, read-out: Inh % (inhibitory effect on CHK1 kinase activity). Here is the method: 2 μL of kinase CHK1 (#V1941, Promega), 1 μL of compound diluted with buffer, and 2 μL of ATP substrate was successively added to a 384-well plate (final concentration of CHK1 was 1 ng/well, ATP was 10 μM). The positive control wells contained CHK1, ATP and DMSO whereas the negative control wells contained ATP, DMSO without enzyme. The mixtures were centrifuged at 1000 rpm for 1 minute and kept in darkness at room temperature for 1 hour to react. Then, 5 μL of ADP-Glo reagent was added to each well and incubated at room temperature for 40 minutes. At the end of incubation, 10 μL of kinase detection reagent was added to each well, and the relative chemiluminescence values (RLU) were measured on Varioskan® Flash (Thermo). The following calculation was performed: Inhibition rate %=(RLU of positive control−RLU of compound)/(RLU of positive control−RLU of negative control)×100. Data were analyzed using GraphPad Prism6.0 and fitted using the curve equation: Y=Bottom+(Top-Bottom)/(1+10^((Log IC50−X)*HillSlope)), and IC50 values were calculated.
Background: ADP-Glo turns the ADP formed in a reaction into a luminescent signal.

As to `COc1cc(C(F)(F)F)cc(OC[C@H]2CCCNC2)c1-c1cc(Nc2cnc(C#N)cn2)n[nH]1` [Example 45, (S)-5-((5-(2-methoxy-6-(piperidin-3-ylmethoxy)-4-(trifluoromethyl)phenyl)-1H-pyrazol-3-yl)amino)pyrazine-2-carbonitrile], the IC50 in assay [1] stood at 8.8 nM; in assay [2], 9.5 nM; at CHK1 kinase, 1.57 nM.
The corresponding values for `N#Cc1cnc(Nc2cc(-c3c(F)cccc3OC[C@H]3CCCNC3)[nH]n2)cn1` [Example 46, (S)-5-((5-(2-fluoro-6-(piperidin-3-ylmethoxy)phenyl)-1H-pyrazol-3-yl)amino)pyrazine-2-carbonitrile] are 14.7 nM, 13.3 nM and 0.59 nM.
As for `N#Cc1cnc(Nc2cc(-c3c(Cl)cccc3OC[C@H]3CCCNC3)[nH]n2)cn1` [Example 47, (S)-5-((5-(2-chloro-6-(piperidin-3-ylmethoxy)phenyl)-1H-pyrazol-3-yl)amino)pyrazine-2-carbonitrile], the IC50 in assay [1] is 381 nM; in assay [2], 533 nM. In addition, the inhibition at 0.01 µM on CHK1 kinase turned out to be 40%.
As to `N#Cc1cnc(Nc2cc(-c3c(O)cccc3OC[C@H]3CCCNC3)[nH]n2)cn1` [Example 48, (S)-5-((5-(2-hydroxy-6-(piperidin-3-ylmethoxy)phenyl)-1H-pyrazol-3-yl)amino)pyrazine-2-carbonitrile], the values for the IC50 (in assay [1]; in assay [2]; at CHK1 kinase) were 6.5 nM, 5.4 nM and 0.58 nM, respectively.
Take `N#Cc1cnc(Nc2cc(-c3c(F)cccc3OCC3CNC3)[nH]n2)cn1` [Example 53, 5-((5-(2-(azetidin-3-ylmethoxy)-6-fluorophenyl)-1H-pyrazol-3-yl)amino)pyrazine-2-carbonitrile]: the IC50 in assay [1] worked out at 89.4 nM; in assay [2], 72 nM. The inhibition at 0.01 µM on CHK1 kinase was 95%.
As to `N#Cc1cnc(Nc2cc(-c3c(F)cccc3OC[C@H]3CCNC3)[nH]n2)cn1` [Example 54, (S)-5-((5-(2-fluoro-6-(pyrrolidin-3-ylmethoxy)phenyl)-1H-pyrazol-3-yl)amino)pyrazine-2-carbonitrile], the IC50 is 30.7 nM in assay [1], 16.2 nM in assay [2] and 0.86 nM at CHK1 kinase.
Consider `N#Cc1cnc(Nc2cc(-c3c(F)cccc3OC[C@@H]3CNCCO3)[nH]n2)cn1` [Example 55, (S)-5-((5-(2-fluoro-6-(morpholin-2-ylmethoxy)phenyl)-1H-pyrazol-3-yl)amino)pyrazine-2-carbonitrile], for which the IC50 in assay [1] came out at 315 nM; in assay [2], 153 nM. Moreover, on CHK1 kinase, the inhibition at 0.01 µM came out at 82%.
With `N#Cc1cnc(Nc2cc(-c3c(F)cc(F)cc3OC[C@H]3CCCNC3)[nH]n2)cn1` [Example 56, (S)-5-((5-(2,4-difluoro-6-(piperidin-3-ylmethoxy)phenyl)-1H-pyrazol-3-yl)amino)pyrazine-2-carbonitrile], the IC50 in assay [1] stood at 27.4 nM; in assay [2], 22.3 nM; on CHK1 kinase, 1.02 nM.
For `N#Cc1cnc(Nc2cc(-c3c(F)cc(Cl)cc3OC[C@H]3CCCNC3)[nH]n2)cn1` [Example 57, (S)-5-((5-(4-chloro-2-fluoro-6-(piperidin-3-ylmethoxy)phenyl)-1H-pyrazol-3-yl)amino)pyrazine-2-carbonitrile], the IC50 in assay [1] turned out to be 170 nM; in assay [2], 106 nM. Besides, the inhibition at 0.01 µM on CHK1 kinase is 92%.
Take `N#Cc1cnc(Nc2cc(-c3c(F)cc(Br)cc3OC[C@H]3CCCNC3)[nH]n2)cn1` [Example 59, (S)-5-((5-(4-bromo-2-fluoro-6-(piperidin-3-ylmethoxy)phenyl)-1H-pyrazol-3-yl)amino)pyrazine-2-carbonitrile]: the IC50 in assay [1] stood at 60 nM; in assay [2], 60.8 nM; on CHK1 kinase, 2.27 nM.
The corresponding values for `Cc1cc(F)c(-c2cc(Nc3cnc(C#N)cn3)n[nH]2)c(OC[C@H]2CCNC2)c1` [Example 62, (S)-5-((5-(2-fluoro-4-methyl-6-(pyrrolidin-3-ylmethoxy)phenyl)-1H-pyrazol-3-yl)amino)pyrazine-2-carbonitrile] are 21.6 nM, 18 nM and 1.58 nM.
The corresponding values for `Cc1cc(F)c(-c2cc(Nc3cnc(C#N)cn3)n[nH]2)c(OC[C@H]2CCCNC2)c1` [Example 63, (S)-5-((5-(2-fluoro-4-methyl-6-(piperidin-3-ylmethoxy)phenyl)-1H-pyrazol-3-yl)amino)pyrazine-2-carbonitrile] are 52.6 nM, 40.2 nM and 1.66 nM.
The corresponding values for `COc1cccc(OC[C@H]2CCCN2)c1-c1cc(Nc2cnc(C#N)cn2)n[nH]1` [Example 65, (R)-5-((5-(2-methoxy-6-(pyrrolidin-2-ylmethoxy)phenyl)-1H-pyrazol-3-yl)amino)pyrazine-2-carbonitrile] are 11.9 nM, 7.3 nM and 0.26 nM.
With `COc1cc(F)cc(OC[C@H]2CCCN2)c1-c1cc(Nc2cnc(C#N)cn2)n[nH]1` [Example 66, (R)-5-((5-(4-fluoro-2-methoxy-6-(pyrrolidin-2-ylmethoxy)phenyl)-1H-pyrazol-3-yl)amino)pyrazine-2-carbonitrile], the results for the IC50 (in assay [1]; in assay [2]; on CHK1 kinase) were 26.5 nM, 14.3 nM and 1.22 nM, respectively.
The corresponding values for `COc1cc(Cl)cc(OCC2CNC2)c1-c1cc(Nc2cnc(C#N)cn2)n[nH]1` [Example 67, 5-((5-(2-(azetidin-3-ylmethoxy)-4-chloro-6-methoxyphenyl)-1H-pyrazol-3-yl)amino)pyrazine-2-carbonitrile] are 8.7 nM, 9.1 nM and 1.72 nM.
The corresponding values for `COc1cc(Cl)cc(OC[C@H]2CCNC2)c1-c1cc(Nc2cnc(C#N)cn2)n[nH]1` [Example 68, (S)-5-((5-(4-chloro-2-methoxy-6-(pyrrolidin-3-ylmethoxy)phenyl)-1H-pyrazol-3-yl)amino)pyrazine-2-carbonitrile] are 2.8 nM, 2.3 nM and 0.44 nM.
`COc1cc(Br)cc(OC[C@H]2CCNC2)c1-c1cc(Nc2cnc(C#N)cn2)n[nH]1` [Example 70, (S)-5-((5-(4-bromo-2-methoxy-6-(pyrrolidin-3-ylmethoxy)phenyl)-1H-pyrazol-3-yl)amino)pyrazine-2-carbonitrile]: the results for the IC50 (in assay [1]; in assay [2]; at CHK1 kinase) were 4.9 nM, 3.6 nM and 1.16 nM, respectively.
The corresponding values for `COc1cccc(OC[C@@H]2CNCCS2)c1-c1cc(Nc2cnc(C#N)cn2)n[nH]1` [Example 76-A, (S)-5-((5-(2-methoxy-6-(thiomorpholin-2-ylmethoxy)phenyl)-1H-pyrazol-3-yl)amino)pyrazine-2-carbonitrile] are 1.4 nM, 2.1 nM and 0.79 nM.
